Measurements as given in publication PMC4912077 (PLoS ONE, 2016).
Values joined by “and” are separate entries in the source; they are usually repeats but may differ in a detail not shown here. Equal values may be shown once. Where a name gives a salt, the structure may show the parent alone.

Columns and labels:
Alpha2A = Alpha2A (Homo sapiens, UniProt P08913); test: NIMH PDSP radioligand binding, Alpha2A
Method: (§1) Radioligands and concentrations used for additional 45 CNS receptor binding assays are listed as supporting information (S1 Table). This work was performed by the National Institute of Mental Health Psychoactive Drug Screening Program (NIMH PDSP) as described previously.[26] Briefly target compounds were dissolved in DMSO and subjected to a primary screen at 10,000 nM concentration. […] Additional experimental details are available in the NIMH PDSP assay protocol book.

Alpha2C = target: T1, Alpha2C (Homo sapiens, UniProt P18825); test: NIMH PDSP radioligand binding, Alpha2C
T1 sequence (P18825 1-462): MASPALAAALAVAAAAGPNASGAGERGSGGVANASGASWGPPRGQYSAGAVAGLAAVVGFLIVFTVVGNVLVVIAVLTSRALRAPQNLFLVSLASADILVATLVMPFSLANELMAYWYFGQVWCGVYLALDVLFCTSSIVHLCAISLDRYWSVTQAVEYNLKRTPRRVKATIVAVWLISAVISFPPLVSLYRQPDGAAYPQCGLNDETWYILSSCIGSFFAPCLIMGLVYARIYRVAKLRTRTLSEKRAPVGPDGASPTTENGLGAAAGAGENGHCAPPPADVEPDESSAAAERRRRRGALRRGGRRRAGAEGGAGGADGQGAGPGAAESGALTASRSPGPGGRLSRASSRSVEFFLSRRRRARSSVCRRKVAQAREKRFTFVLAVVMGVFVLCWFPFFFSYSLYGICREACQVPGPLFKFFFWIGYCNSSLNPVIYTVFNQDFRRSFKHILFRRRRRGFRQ
Method: as §1

KOR = KOR (Homo sapiens, UniProt P41145); test: NIMH PDSP radioligand binding, KOR
Method: as §1

MOR = MOR (Homo sapiens, UniProt P35372); test: NIMH PDSP radioligand binding, MOR
Method: as §1

M1 = M1 (Homo sapiens, UniProt P11229); test: NIMH PDSP radioligand binding, M1
M2 = M2 (Homo sapiens, UniProt P08172); test: NIMH PDSP radioligand binding, M2
M3 = M3 (Homo sapiens, UniProt P20309); test: NIMH PDSP radioligand binding, M3
M4 = M4 (Homo sapiens, UniProt P08173); test: NIMH PDSP radioligand binding, M4
M5 = M5 (Homo sapiens, UniProt P08912); test: NIMH PDSP radioligand binding, M5
DAT [1] = target: T2, DAT (Homo sapiens, UniProt Q01959); test: NIMH PDSP radioligand binding, DAT
Method: as §1

Sigma 2 = target: T3, Sigma 2 (Rattus norvegicus, UniProt Q5U3Y7); test: NIMH PDSP radioligand binding, Sigma 2
T3 sequence (Q5U3Y7 1-176): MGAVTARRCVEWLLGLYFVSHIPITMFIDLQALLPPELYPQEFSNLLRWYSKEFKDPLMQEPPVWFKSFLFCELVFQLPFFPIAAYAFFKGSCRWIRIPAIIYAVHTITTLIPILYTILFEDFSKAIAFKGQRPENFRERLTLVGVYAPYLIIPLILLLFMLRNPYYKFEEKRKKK
Method: as §1

Human SERT = target: T4, Human SERT (Homo sapiens, UniProt P31645); test: Monoamine reuptake inhibition assay, SERT in HEK293 cells; format: cell-based
T4 construct: expressed in transfected cells; host or cells: HEK293
Method: (§2) Monoamine reuptake inhibition assays were performed via the NIMH PDSP as previously described.[28] In brief, the neurotransmitter transporter uptake assay kit (R8174) (Molecular Devices) was used. Human monoamine transporters (DAT, NET and SERT) were stably expressed in HEK293 cells. Assay buffer consisted of 20 mM HEPES, 1x HBSS at pH 7.4. Cells were plated in Pol-L-Lys (PLL) coated 384-well black clear bottom cell culture plates with a density of 15,000 cells/well. Cells were incubated for at least 6 h prior to assay. Media was removed and replaced with 20 μL assay buffer and 5 μL of drug or positive control (cocaine or nisoxetine) as a 5X stock. Cells were incubated for 30 min at 37°C. 25 μL of dye solution was then added and following an additional 30 min incubation (at 37°C) fluorescence intensity was measured using a FlexStation II (bottom read mode, excitation wavelength = […], emission = 520 nM with a cutoff of 510 nM). […] Additional details are available in the NIMH PDSP assay protocol book.

[2] = system: PCP site within the NMDAR channel;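 also: IC50 by nonlinear regression of percent specific binding versus log concentration, Ki from IC50 via Cheng-Prusoff, raw counts in CPM, duplicates repeated at least three times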
Method: (§3) The reaction was terminated by vacuum filtration using a 24 well cell harvester (Brandel, Gaithersburg, MD) over presoaked GF/B glass fiber filters (Brandel, Gaithersburg, MD). Filters were washed with room temperature assay buffer (3 x 5 mL). […] IC50 values were determined in Graphpad Prism 5.0 using non-linear regression with log-concentration plotted against percent specific binding. […] Ki values were calculated using the equation of Cheng and Prusoff [24]. […] Protein concentration was determined via the Bradford method using Coomassie protein assay reagent (Sigma, USA) [25] with rat albumin (Sigma, USA) as standard. Experiments were performed in duplicate and repeated a minimum of three times.

NMDAR [3] = system: NMDAR; design: method as in earlier work; details: [3H]-TCP; cited from earlier work
DAT [4] = target: T2, DAT; test: Monoamine reuptake inhibition assay, DAT in HEK293 cells; format: cell-based; design: expressed in transfected cells; host or cells: HEK293; details: for Hill slope DAT reuptake inhibition: HEK293 cells
Method: as §2

NET [5] = target: T5, NET (Homo sapiens, UniProt P23975); test: Monoamine reuptake inhibition assay, NET in HEK293 cells; format: cell-based; design: expressed in transfected cells; host or cells: HEK293; details: for Hill slope NET reuptake inhibition: HEK293 cells
Method: as §2

[6] = target: PCP site within the NMDAR channel; test: NMDAR binding, [3H]-MK-801 displacement in rat forebrain homogenate; details: for Ki: read-out: Ki ± SEM, [3H]-(+)-MK-801, rat forebrain, Cheng-Prusoff; for [3H]-MK-801 binding counts (Count1-3): raw counts, three counts;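 as to all read-outs here: IC50 by nonlinear regression of percent specific binding versus log concentration, Ki from IC50 via Cheng-Prusoff, raw counts in CPM, duplicates repeated at least three times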
Method: as §3

H1 = H1 (Homo sapiens, UniProt P35367); test: NIMH PDSP radioligand binding, H1
Method: as §1

H3 = H3 (Homo sapiens, UniProt Q9Y5N1); test: NIMH PDSP radioligand binding, H3
Method: as §1

NET [7] = target: T5, NET; test: NIMH PDSP radioligand binding, NET
Method: as §1

NMDAR [8] = details: [3H]-MK-801, rat cortex and hippocampus membranes; read-out: NMDAR affinity; cited from earlier work
NMDA receptor = test: NMDA receptor-mediated fEPSP (NMDAR-fEPSP) in CA1 of hippocampal slices; format: cell-based, rat; details: 10 μM
Method: Male Wistar rats (Crl:Wi; Charles River, UK) aged 9–10 wk were sacrificed by neck vertebral dislocation (schedule 1 method) according to the United Kingdom (Scientific Procedures) Act of 1986. […] The brain was cut parasagittally into 400 μm sections and hippocampal slices were removed, stored and placed in a submerged recording chamber at 28–30°C. Recordings of synaptic activity were made, analyzed and presented as described. A bipolar electrode was used to deliver stimuli (0.03 Hz) to the Schaffer collateral pathway to enable recording of field excitatory synaptic potentials (fEPSPs) using a glass microelectrode positioned in the stratum radiatum of area CA1. […] After 30 min of stable control responses, 1 and 10 μM solutions of the individual compounds were added to the perfusate for 3–12 h while recording the amplitude and area of the NMDAR-fEPSP on-line using WinLTP [31]. Single exponential curves were fitted to the graphs and curves extrapolated to show likely half-times and minimum plateau responses achieved with each concentration of the compounds. Raw data for all fEPSP experiments are provided as supporting information (S2, S3 and S4 Files).

T2 sequence (Q01959 whole entry): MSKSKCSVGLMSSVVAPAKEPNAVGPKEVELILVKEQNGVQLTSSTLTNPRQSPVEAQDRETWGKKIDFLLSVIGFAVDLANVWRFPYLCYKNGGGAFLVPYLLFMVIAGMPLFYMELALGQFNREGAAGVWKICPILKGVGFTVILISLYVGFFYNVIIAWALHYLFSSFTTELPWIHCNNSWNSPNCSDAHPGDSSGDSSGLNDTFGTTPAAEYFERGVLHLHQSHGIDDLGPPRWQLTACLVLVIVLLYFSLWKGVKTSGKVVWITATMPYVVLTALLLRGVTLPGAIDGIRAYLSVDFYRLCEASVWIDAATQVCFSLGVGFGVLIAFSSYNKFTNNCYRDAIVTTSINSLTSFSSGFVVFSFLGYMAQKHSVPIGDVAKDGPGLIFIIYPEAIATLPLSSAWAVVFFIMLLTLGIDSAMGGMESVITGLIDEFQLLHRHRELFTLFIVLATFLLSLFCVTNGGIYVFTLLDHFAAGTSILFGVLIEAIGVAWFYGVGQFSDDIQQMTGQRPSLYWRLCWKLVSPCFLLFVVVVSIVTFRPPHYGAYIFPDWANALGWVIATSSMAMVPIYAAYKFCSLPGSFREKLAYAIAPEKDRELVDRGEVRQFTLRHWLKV
Chain of M3 (P20309 whole entry): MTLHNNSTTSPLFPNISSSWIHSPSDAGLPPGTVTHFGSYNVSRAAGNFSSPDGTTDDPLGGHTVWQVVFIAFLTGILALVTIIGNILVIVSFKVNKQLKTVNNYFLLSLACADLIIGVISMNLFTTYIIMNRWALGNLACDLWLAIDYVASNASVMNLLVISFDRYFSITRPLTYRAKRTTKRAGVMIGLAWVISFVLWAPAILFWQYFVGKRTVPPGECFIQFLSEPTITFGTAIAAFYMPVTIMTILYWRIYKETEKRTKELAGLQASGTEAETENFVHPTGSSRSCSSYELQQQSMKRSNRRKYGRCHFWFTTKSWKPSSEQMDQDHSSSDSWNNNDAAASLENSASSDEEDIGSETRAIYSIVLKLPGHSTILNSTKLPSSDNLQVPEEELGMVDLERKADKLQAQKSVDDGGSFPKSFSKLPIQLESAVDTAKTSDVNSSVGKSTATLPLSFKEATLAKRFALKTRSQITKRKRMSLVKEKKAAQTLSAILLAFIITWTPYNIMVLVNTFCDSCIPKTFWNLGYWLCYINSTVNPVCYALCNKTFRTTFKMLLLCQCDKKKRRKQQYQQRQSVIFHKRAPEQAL
T5 sequence (P23975 whole entry): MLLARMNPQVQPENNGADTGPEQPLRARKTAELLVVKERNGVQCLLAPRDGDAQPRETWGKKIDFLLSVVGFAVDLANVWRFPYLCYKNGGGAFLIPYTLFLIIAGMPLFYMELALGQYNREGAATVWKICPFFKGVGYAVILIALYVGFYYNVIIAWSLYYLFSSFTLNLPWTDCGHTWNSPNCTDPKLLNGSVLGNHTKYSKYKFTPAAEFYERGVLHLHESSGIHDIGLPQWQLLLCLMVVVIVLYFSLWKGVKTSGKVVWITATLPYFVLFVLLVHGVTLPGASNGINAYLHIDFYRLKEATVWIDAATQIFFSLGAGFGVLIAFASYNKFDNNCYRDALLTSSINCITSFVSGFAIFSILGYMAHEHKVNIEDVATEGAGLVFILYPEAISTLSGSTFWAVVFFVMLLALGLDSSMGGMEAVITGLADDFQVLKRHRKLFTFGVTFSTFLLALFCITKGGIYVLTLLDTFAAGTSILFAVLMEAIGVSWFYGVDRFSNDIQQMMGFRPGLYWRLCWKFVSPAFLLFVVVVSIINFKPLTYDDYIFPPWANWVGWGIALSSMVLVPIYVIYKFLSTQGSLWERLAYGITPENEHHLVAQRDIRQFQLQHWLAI
Chain of M1 (P11229 whole entry): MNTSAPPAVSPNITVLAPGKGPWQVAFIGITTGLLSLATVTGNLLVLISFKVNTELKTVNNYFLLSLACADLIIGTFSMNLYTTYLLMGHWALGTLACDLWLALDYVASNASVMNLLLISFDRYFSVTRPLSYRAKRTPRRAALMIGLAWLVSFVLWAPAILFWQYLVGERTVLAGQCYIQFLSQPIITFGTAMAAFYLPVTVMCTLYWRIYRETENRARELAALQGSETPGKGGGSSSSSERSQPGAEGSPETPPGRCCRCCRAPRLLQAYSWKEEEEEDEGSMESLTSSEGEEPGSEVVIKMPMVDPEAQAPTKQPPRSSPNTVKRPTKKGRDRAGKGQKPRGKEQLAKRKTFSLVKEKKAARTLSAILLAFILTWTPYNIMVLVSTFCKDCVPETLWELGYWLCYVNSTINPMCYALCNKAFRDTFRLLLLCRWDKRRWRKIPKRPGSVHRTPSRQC
T4 sequence (P31645 whole entry): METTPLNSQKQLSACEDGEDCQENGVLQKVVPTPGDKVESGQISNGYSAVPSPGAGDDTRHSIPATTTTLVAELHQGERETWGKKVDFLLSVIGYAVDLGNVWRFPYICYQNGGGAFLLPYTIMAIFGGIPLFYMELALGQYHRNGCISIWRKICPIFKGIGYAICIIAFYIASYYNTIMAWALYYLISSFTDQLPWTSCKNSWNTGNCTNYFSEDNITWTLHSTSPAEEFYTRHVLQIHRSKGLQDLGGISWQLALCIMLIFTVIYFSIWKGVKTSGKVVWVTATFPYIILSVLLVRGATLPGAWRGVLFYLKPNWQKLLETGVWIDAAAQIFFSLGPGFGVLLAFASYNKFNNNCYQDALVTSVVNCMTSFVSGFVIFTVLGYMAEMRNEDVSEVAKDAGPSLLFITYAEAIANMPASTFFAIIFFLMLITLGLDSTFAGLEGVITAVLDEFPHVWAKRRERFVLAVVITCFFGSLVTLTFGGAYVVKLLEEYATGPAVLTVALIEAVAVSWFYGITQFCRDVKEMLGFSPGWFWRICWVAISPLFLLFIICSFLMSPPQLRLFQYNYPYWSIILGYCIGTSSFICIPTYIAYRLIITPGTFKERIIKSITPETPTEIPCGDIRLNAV
Chain of M2 (P08172 whole entry): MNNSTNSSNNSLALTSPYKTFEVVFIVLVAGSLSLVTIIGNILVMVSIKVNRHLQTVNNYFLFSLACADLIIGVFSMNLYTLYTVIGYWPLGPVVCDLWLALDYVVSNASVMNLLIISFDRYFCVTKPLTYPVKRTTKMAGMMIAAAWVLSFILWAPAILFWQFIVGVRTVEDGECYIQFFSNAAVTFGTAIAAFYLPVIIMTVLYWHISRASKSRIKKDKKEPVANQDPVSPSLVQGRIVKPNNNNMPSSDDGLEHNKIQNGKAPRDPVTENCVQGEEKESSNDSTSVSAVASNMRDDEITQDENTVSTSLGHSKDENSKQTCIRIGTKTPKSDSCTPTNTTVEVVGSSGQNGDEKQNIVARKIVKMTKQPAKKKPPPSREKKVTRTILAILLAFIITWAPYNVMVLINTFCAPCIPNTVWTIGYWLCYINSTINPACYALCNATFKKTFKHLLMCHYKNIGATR
Chain of M5 (P08912 whole entry): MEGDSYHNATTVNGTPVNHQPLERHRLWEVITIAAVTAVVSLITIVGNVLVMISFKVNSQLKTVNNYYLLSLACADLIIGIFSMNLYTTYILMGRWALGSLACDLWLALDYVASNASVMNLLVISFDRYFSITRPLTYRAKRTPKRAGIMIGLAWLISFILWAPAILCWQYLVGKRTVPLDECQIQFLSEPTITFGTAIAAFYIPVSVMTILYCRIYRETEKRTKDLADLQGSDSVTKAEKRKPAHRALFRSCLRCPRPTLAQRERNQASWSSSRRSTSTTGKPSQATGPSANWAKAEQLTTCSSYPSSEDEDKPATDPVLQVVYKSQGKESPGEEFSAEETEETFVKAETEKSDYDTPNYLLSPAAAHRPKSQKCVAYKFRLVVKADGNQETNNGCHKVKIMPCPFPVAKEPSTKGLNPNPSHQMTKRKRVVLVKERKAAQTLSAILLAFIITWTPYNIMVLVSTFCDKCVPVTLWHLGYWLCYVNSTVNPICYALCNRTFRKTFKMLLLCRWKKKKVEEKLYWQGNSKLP
Chain of KOR (P41145 whole entry): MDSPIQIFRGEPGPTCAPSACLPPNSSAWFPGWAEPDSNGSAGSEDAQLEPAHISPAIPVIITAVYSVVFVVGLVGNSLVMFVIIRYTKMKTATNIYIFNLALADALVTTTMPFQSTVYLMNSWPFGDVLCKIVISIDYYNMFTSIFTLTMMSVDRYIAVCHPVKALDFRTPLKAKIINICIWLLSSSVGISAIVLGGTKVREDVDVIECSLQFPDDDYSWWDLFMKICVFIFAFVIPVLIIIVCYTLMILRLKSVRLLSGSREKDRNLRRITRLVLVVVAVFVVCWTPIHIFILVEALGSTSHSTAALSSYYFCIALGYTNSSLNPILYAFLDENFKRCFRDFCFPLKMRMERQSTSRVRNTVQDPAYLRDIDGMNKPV
Chain of H1 (P35367 whole entry): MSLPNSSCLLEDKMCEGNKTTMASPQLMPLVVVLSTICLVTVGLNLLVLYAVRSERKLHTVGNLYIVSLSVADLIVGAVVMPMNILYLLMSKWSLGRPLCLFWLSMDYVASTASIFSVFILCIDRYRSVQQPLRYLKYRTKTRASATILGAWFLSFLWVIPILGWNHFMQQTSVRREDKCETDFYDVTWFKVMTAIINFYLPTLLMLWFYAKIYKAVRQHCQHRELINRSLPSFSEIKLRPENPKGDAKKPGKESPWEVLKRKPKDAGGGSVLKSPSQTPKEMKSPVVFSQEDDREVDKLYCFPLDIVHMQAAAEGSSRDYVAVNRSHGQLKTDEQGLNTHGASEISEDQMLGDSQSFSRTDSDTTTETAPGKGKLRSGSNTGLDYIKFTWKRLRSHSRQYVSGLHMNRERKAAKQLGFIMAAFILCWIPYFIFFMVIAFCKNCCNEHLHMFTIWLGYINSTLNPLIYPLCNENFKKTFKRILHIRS

Compound	Ki (M1) [nM]	Ki (M2) [nM]	Ki (M3) [nM]	Ki (M5) [nM]	Ki (DAT [1]) [nM]	Ki (Sigma 2) [nM]	IC50 (Human SERT) [nM]	IC50 [2] [nM]	IC50 (DAT [4]) [nM]	Hill slope DAT reuptake inhibition (DAT [4])	IC50 (NET [5]) [nM]	Hill slope NET reuptake inhibition (NET [5])	Ki [6] [nM]	further results
Clc1ccccc1C(Cc1ccccc1)N1CCCCC1 (centres unmarked) [2-Cl-DPH, 2-Cl-diphenidine]	278	910	615	291	357	474	> 10000	14.6 ± 2.1	10500	0.65	27100	1.02	9.3 ± 1.3	Ki (Alpha2A): 2690 nM; Ki (Alpha2C): 1820 nM; Ki (KOR): 642 nM; Ki (MOR): 2060 nM; affinities at muscarinic sites relative to NMDAR (M1; less than for NMDAR): 30 fold; Ki (M4): 828 nM; NMDAR affinity (NMDAR [3]): pM affinity
COc1cccc(C(Cc2ccccc2)N2CCCCC2)c1 (centres unmarked) [3-MXP, 3-methoxy-diphenidine]	2400	2970	2300	1120	88	633	> 10000	30.3 ± 2.6	587	0.92	2710	0.95	19.3 ± 1.7	Ki (H1): 2030 nM; Ki (H3): 1470 nM; Ki (KOR): 2260 nM; Ki (NET [7]): 325 nM
COc1ccc(C(Cc2ccccc2)N2CCCCC2)cc1 (centres unmarked) [4-MXP, 4-methoxy-diphenidine]	2430	1620	2400	2760	157	564	19000	724 ± 69.9	2230	0.96	22500	1.75	461 ± 44.5	Ki (Alpha2C): 2510 nM; Ki (H1): 4530 nM; Ki (H3): 556 nM; affinity at DAT relative to NMDAR (DAT [1]; higher at DAT): ~ 2.5 fold; Ki (NET [7]): 2700 nM; Hill slope SERT reuptake inhibition (Human SERT; HEK293 cells): 1.12
c1ccc(C[C@H](c2ccccc2)N2CCCCC2)cc1 [(R)-DPH]	–	–	–	–	–	–	–	–	–	–	–	–	–	Ki (NMDAR [8]): 5250 nM
c1ccc(C[C@@H](c2ccccc2)N2CCCCC2)cc1 [(S-)-DPH]	–	–	–	–	–	–	–	–	–	–	–	–	–	Ki (NMDAR [8]): 120 nM
NC(CCCP(=O)(O)O)C(=O)O [D-AP5, reference compound]	–	–	–	–	–	–	–	–	–	–	–	–	–	small persistent deflection remaining of the NMDAR-fEPSP (NMDA receptor): < 20%
CNC1(c2ccccc2Cl)CCCCC1=O (centres unmarked) [Ketamine, ketamine, reference compound]	–	–	–	–	–	–	–	508 ± 30.1	–	–	–	–	324 ± 19.2	–
CC12CC3CC(C)(C1)CC(N)(C3)C2 [Memantine, memantine hydrochloride]	–	–	–	–	–	–	–	594 ± 41.3	–	–	–	–	378 ± 26.3	[3H]-MK-801 binding counts (Count1-3) ([6]; Assay 6, memantine concentration 1.00E-04): 54.75 and 56.13 and 57.01; [3H]-MK-801 binding counts (Count1-3) ([6]; Assay 6, memantine concentration 1.00E-05): 80 and 85.76 and 84.26; [3H]-MK-801 binding counts (Count1-3) ([6]; Assay 6, memantine concentration 1.00E-06): 302 and 309.15 and 302.79; [3H]-MK-801 binding counts (Count1-3) ([6]; Assay 6, memantine concentration 1.00E-07): 630.88 and 668.92 and 629.83; [3H]-MK-801 binding counts (Count1-3) ([6]; Assay 6, memantine concentration 1.00E-08): 740.13 and 745.68 and 749.23; [3H]-MK-801 binding counts (Count1-3) ([6]; Assay 6, memantine concentration 1.00E-09): 755.01 and 781.68 and 787.36; [3H]-MK-801 binding counts (Count1-3) ([6]; Assay 6, memantine concentration 1.00E-10): 758.88 and 769.56 and 771.23; [3H]-MK-801 binding counts (Count1-3) ([6]; Assay 6 duplicate, memantine concentration 1.00E-04): 49.38 and 49.13 and 46.88; [3H]-MK-801 binding counts (Count1-3) ([6]; Assay 6 duplicate, memantine concentration 1.00E-05): 91.38 and 89.51 and 86.76; [3H]-MK-801 binding counts (Count1-3) ([6]; Assay 6 duplicate, memantine concentration 1.00E-06): 307.63 and 313.65 and 307.54; [3H]-MK-801 binding counts (Count1-3) ([6]; Assay 6 duplicate, memantine concentration 1.00E-07): 637.88 and 639.55 and 638.34; [3H]-MK-801 binding counts (Count1-3) ([6]; Assay 6 duplicate, memantine concentration 1.00E-08): 730.14 and 762.94 and 750.86; [3H]-MK-801 binding counts (Count1-3) ([6]; Assay 6 duplicate, memantine concentration 1.00E-09): 757.26 and 761.06 and 761.99; [3H]-MK-801 binding counts (Count1-3) ([6]; Assay 6 duplicate, memantine concentration 1.00E-10): 762.51 and 773.44 and 773.61
